Data set [1] concerns Aspergillus niger IFO 4417. Kind of data set: Antimicrobial activity against fungi, serial agar dilution method in Sabouraud agar. The class given is cell-based. On the set-up: unit not given here. The following applies: 30°C for 24 hours. The procedure:
Antimicrobial activities of the FR-901154 and FR-901155 Substances Antimicrobial activities of the FR-901154 and FR-901155 substances against various fungi were determined by a serial agar dilution method in a Sabouraud agar. Minimum inhibitory concentrations (MIC) were expressed in terms of »g/ml after incubation at 30°C for 24 hours. […]
(In agar dilution, organisms are placed on agar that contains the substance at set levels.)

A short description of data set [2]: Solubility (physical and chemical properties). The class given is physicochemical. The procedure:
(23)/(D) [formula] : -74° (c = 1.8, CHCl₃) (8) Ultraviolet Absorption Spectrum: end absorption (9) Infrared Absorption Spectrum: [drawing 4] 3570, 3500, 2940, 2880, 2820, 1740, 1710, 1700, 1640, 1460, 1450, 1380, 1350, 1320, 1280, 1230, 1190, 1170, 1140, 1100, 1090, 1050, 1040, 1000, 990, 940, 910 cm⁻¹ (10) ¹³C Nuclear Magnetic Resonance Spectrum: δ(ppm, CDCl₃, 100MHz): [formula] [formula] (11) ¹H Nuclear Magnetic Resonance Spectrum: the chart of which being shown in Figure 3, (12) Thin Layer Chromatography: […]

With `C=CCC1/C=C(\C)CC(C)CC(OC)C2OC(O)(C(=O)C(=O)N3CCCCC3C(=O)OC(/C(C)=C/C3CCC(O)C(O)C3)C(C)C(O)CC1=O)C(C)CC2OC` (stereo not shown) [FR-901154], the “MIC Value” in data set [1] is on record as 0.025.
Take `CCCC1C=C(C)CC(C)CC(OC)C2OC(O)(C(=O)C(=O)N3CCCCC3C(=O)OC(C(C)=CC3CCC(O)C(OC)C3)C(C)C(O)CC1=O)C(C)CC2OC` (stereo not shown) [FR-901156, 1,14-dihydroxy-12-[2-(4-hydroxy-3-methoxycyclohexyl)-1-methylvinyl]-23,25-dimethoxy-13,19,21,27-tetramethyl-17-propyl-11,28-dioxa-4-azatricyclo[22.3.1.0^4,9]octacos-18-ene-2,3,10,16-tetraone]: the Solubility result is “Soluble” in data set [2] (methanol, ethanol, acetone, ethyl acetate, chloroform, diethyl ether, benzene and acetonitrile); “Sparingly Soluble” in data set [2] (n-hexane and petroleum ether); “Insoluble” in data set [2] (water).
